# Reference: ChEMBL document CHEMBL4813957, “Antitubercular properties of thiazolidin-4-ones - A review” (Eur J Med Chem, 2021)
# Tests used:
# [1] = test system: Mycobacterium tuberculosis; assay: Antimycobacterial activity against Mycobacterium tuberculosis H37Rv measured after 14 days by test tube dilution technique; type: functional; conditions: 336 h, time 14 day
# [2] = test system: Mycobacterium tuberculosis; assay: Antimycobacterial activity against Mycobacterium tuberculosis H37Rv measured after 21 days by test tube dilution technique; type: functional; conditions: 504 h, time 21 day
# [3] = test system: Mycobacterium tuberculosis; assay: Antimycobacterial activity against Mycobacterium tuberculosis H37Rv assessed as bacterial inhibition at 25 ug/ml by microplate alamar blue assay relative to control; type: functional
# [4] = test system: Mycobacterium tuberculosis; assay: Antimycobacterial activity against Mycobacterium tuberculosis H37Rv by Lowenstein-Jensen method relative to control; type: functional
# [5] = test system: Mycobacterium tuberculosis; assay: Antimycobacterial activity against Mycobacterium tuberculosis H37Ra 7131 incubated for 21 days by broth dilution method; type: functional; conditions: H37Ra 7131, 504 h, time 21 day
# [6] = test system: Mycobacterium tuberculosis; assay: Antimycobacterial activity against Mycobacterium tuberculosis H37Rv incubated for 7 days by microplate alamar blue assay; type: functional; conditions: 168 h, time 7 day
# [7] = test system: Mycobacterium tuberculosis; assay: Antimycobacterial activity against Mycobacterium tuberculosis H37Rv; type: functional
# [8] = test system: Mycolicibacterium smegmatis; assay: Antimycobacterial activity against Mycobacterium smegmatis ATCC 35797 incubated for 48 hrs by agar dilution method; type: functional
# [9] = test system: Mycobacterium tuberculosis; assay: Antimycobacterial activity against Mycobacterium tuberculosis H37Ra; type: functional
# [10] = test system: Mycobacterium tuberculosis; assay: Antimycobacterial activity against Mycobacterium tuberculosis H37Rv ATCC 27294 incubated for 5 days by microplate alamar blue assay; type: functional; conditions: H37Rv ATCC 27294, 120 h, time 5 day
# [11] = test system: Mycobacterium tuberculosis; assay: Bactericidal activity against Mycobacterium tuberculosis H37Ra ATCC 25177 assessed as ratio of MBC to MIC; type: functional
# [12] = Selectivity index, ratio of IC50 for African green monkey Vero cells to MIC for antitubercular activity against Mycobacterium tuberculosis H37Ra ATCC 25177; type: toxicity
# [13] = test system: Mycobacterium tuberculosis; assay: Antimycobacterial activity against Mycobacterium tuberculosis H37Ra ATCC 25177 incubated for 7 days by microplate alamar blue assay; type: functional; conditions: H37Ra ATCC 25177, 168 h, time 7 day
# [14] = test system: Mycobacterium tuberculosis; assay: Antimycobacterial activity against Mycobacterium tuberculosis H37Rv assessed as growth inhibition at 6.25 ug/ml by microplate alamar blue assay relative to control; type: functional; conditions: read-out: GI
# [15] = test system: Mycobacterium tuberculosis; assay: Antimycobacterial activity against Mycobacterium tuberculosis H37Rv ATCC27294 incubated for 7 days by microplate alamar blue assay; type: functional; conditions: H37Rv ATCC 27294, 168 h, time 7 day
# [16] = test system: Mycobacterium tuberculosis; assay: Antimycobacterial activity against Mycobacterium tuberculosis H37Rv assessed as growth inhibition at 50 ug/ml by Lowenstein-Jensen method relative to control; type: functional; conditions: read-out: GI
# [17] = test system: Mycobacterium tuberculosis; assay: Antimycobacterial activity against Mycobacterium tuberculosis H37Ra ATCC 25177 measured on 8th to 12th day by XTT reduction menadione assay; type: functional; conditions: time 8-12 day
# [18] = test system: Mycobacterium tuberculosis; assay: Antimycobacterial activity against Mycobacterium tuberculosis H37Rv by microplate alamar blue assay; type: functional
# [19] = test system: Mycobacterium tuberculosis; assay: Antimycobacterial activity against Mycobacterium tuberculosis H37Rv incubated for 5 days by microplate alamar blue assay; type: functional; conditions: 120 h, time 5 day
smiles,measurement,setting,value
CCOc1ccc(N2C(=O)CS/C2=N/NC(=O)COc2cnccn2)cc1,MIC,[1],> 100 µg/mL
same,MIC,[2],> 100 µg/mL
CCCCCCCCCCCCN1C(=O)C(CC(=O)O)SC12CCN(C(=O)OC(C)(C)C)CC2 (centres undefined),inhibition at 25 µg/mL,[3],96%
O=C(NCCCNc1ncc([N+](=O)[O-])s1)N1C(=O)/C(=C/c2ccccc2[N+](=O)[O-])SC1c1ccccc1[N+](=O)[O-] (centres undefined),MIC,[4],2.75 µg/mL
O=C(COc1cnccn1)N/N=C1/SCC(=O)N1c1ccc(Cl)cc1,MIC,[1],> 100 µg/mL
same,MIC,[2],> 100 µg/mL
N=C1SC(Br)(C(Br)c2ccc([N+](=O)[O-])cc2)C(=O)N1NC(=O)c1ccncc1 (centres undefined),MIC,[5],11 µg/mL
Cc1ccc(/N=C2\SC(=O)C(=O)N2NC(=O)c2ccncc2)cc1,MIC,[5],78 µg/mL
COc1ccc(C2SCC(=O)N2c2nnc(S)s2)cc1OC (centres undefined),MIC,[6],1.6 µg/mL
O=C1/C(=C/c2ccccc2Cl)SC(c2ccccc2Cl)N1NCCNc1ncc([N+](=O)[O-])s1 (centres undefined),MIC,[7],25 µg/mL
CCCCCCCC1SCC(=O)N1NC(=O)c1ccncc1 (centres undefined),MIC,[8],> 25 µg/mL
Cc1ccc(/N=N/c2ccc(/C=C3\SC(=S)NC3=O)c(O)c2)cc1,MIC,[9],95 µg/mL
O=C(NN1C(=O)CSC1c1ccc([N+](=O)[O-])cc1)c1ccncc1 (centres undefined),MIC,[10],3.12 µg/mL
NC(=S)N/N=C/c1ccc(OC(=O)CC2SC(=O)NC2=O)c(Cl)c1 (centres undefined),Ratio,[11],2
same,selectivity ratio,[12],> 10
same,MIC,[13],0.031 µg/mL
O=C1CSC(c2ccc(OCc3ccccc3)cc2)N1NC(=O)C(O)(c1ccccc1)c1ccccc1 (centres undefined),inhibition of growth at 6.25 µg/mL,[14],98%
CCCCCCCCCCCCN1C(=O)C(CC(=O)O)SC12CCCC2 (centres undefined),inhibition at 25 µg/mL,[3],97%
COc1ccc(C2SCC(=O)N2NC(=O)Nc2nc(-c3ccc(Cl)cc3)cc(-c3cc(OC)c(OC)c(OC)c3)n2)cc1 (centres undefined),MIC,[7],100 µg/mL
O=C(NN1C(=O)CSC1c1ccccc1O)c1ccncc1 (centres undefined),MIC,[10],0.62 µg/mL
CCCCN1C(=O)CS/C1=N/NC(=O)COc1cnccn1,MIC,[1],> 100 µg/mL
same,MIC,[2],> 100 µg/mL
COc1cc(-c2cc(-c3ccc(Cl)cc3)nc(NC(=O)NN3C(=O)CSC3c3ccccc3O)n2)cc(OC)c1OC (centres undefined),MIC,[7],100 µg/mL
CCCCCCCCCCCCN1C(=O)C(CC(=O)O)SC12CCC(C(C)(C)C)CC2 (centres undefined),inhibition at 25 µg/mL,[3],96%
CC(C)(C)N1C(=O)CS/C1=N/NC(=O)COc1cnccn1,MIC,[1],> 100 µg/mL
same,MIC,[2],> 100 µg/mL
CC1SC(c2ccc(Cl)cc2)N(NC(=O)C(O)(c2ccccc2)c2ccccc2)C1=O (centres undefined),inhibition of growth at 6.25 µg/mL,[14],99%
O=C(NN1C(=O)CSC1c1cccc(O)c1)c1cc(O)c(O)c(O)c1 (centres undefined),MIC,[15],0.79 µg/mL
O=C(NCCCN1c2ccccc2Sc2ccccc21)N1C(=O)/C(=C/c2cccc([N+](=O)[O-])c2)SC1c1cccc([N+](=O)[O-])c1 (centres undefined),inhibition of growth at 50 µg/mL,[16],83%
Cc1ccc(/C=C2\SC(=N)N(NC(=O)c3ccncc3)C2=O)cc1,MIC,[5],13 µg/mL
COc1ccc(/N=N/c2ccc(/C=C3\SC(=S)NC3=O)c(O)c2)cc1,MIC,[9],95 µg/mL
NC(=S)N/N=C/c1ccc(OC(=O)/C=C2\SC(=O)NC2=O)cc1,Ratio,[11],2
same,selectivity ratio,[12],> 10
same,MIC,[13],0.031 µg/mL
CC(C)N1C(=O)CS/C1=N/NC(=O)COc1cnccn1,MIC,[1],> 100 µg/mL
same,MIC,[2],> 100 µg/mL
O=C(NN1C(=O)CSC1c1ccc(O)cc1)c1cc(O)c(O)c(O)c1 (centres undefined),MIC,[15],0.79 µg/mL
O=C(NCCCNc1ncc([N+](=O)[O-])s1)N1C(=O)/C(=C/c2ccc([N+](=O)[O-])cc2)SC1c1ccc([N+](=O)[O-])cc1 (centres undefined),MIC,[4],2.5 µg/mL
CCCCCCCCCC1SCC(=O)N1NC(=O)c1ccncc1 (centres undefined),MIC,[8],25 µg/mL
Cc1cc(NS(=O)(=O)c2ccc(N3C(=O)CSC3c3ccc(C(F)(F)F)cc3)cc2)no1 (centres undefined),IC90,[17],0.43 µg/mL
COc1cc(/C=N/NC(N)=S)ccc1OC(=O)/C=C1\SC(=O)NC1=O,Ratio,[11],2
same,selectivity ratio,[12],> 10
same,MIC,[13],0.031 µg/mL
N=C1SC(Br)(C(Br)c2ccccc2)C(=O)N1NC(=O)c1ccncc1 (centres undefined),MIC,[5],13 µg/mL
Cc1cc(NS(=O)(=O)c2ccc(N3C(=O)CSC3c3c(Cl)cccc3Cl)cc2)no1 (centres undefined),IC90,[17],0.43 µg/mL
N#Cc1ccc(C2SCC(=O)N2NC(=O)C(O)(c2ccccc2)c2ccccc2)cc1 (centres undefined),inhibition of growth at 6.25 µg/mL,[14],98%
CCCCCCCCCCCCN1C(=O)C(CC(=O)O)SC12CCCCCC2 (centres undefined),inhibition at 25 µg/mL,[3],96%
CCCCCCCCCCCCN1C(=O)C(CC(=O)O)SC12CCCCC2 (centres undefined),inhibition at 25 µg/mL,[3],97%
O=C(NN1C(=O)CSC1c1ccccc1)c1cc(O)c(O)c(O)c1 (centres undefined),MIC,[15],0.79 µg/mL
O=C1NC(=S)S/C1=C\c1ccc(/N=N/c2ccccc2)cc1O,MIC,[9],95 µg/mL
Cc1cc(NS(=O)(=O)c2ccc(N3C(=O)CSC3c3ccc(F)cc3)cc2)no1 (centres undefined),IC90,[17],0.43 µg/mL
O=C(O)c1cn(C2CC2)c2cc(N3CCNCC3)c(F)cc2c1=O [CIPROFLOXACIN],MIC,[6],3.12 µg/mL
same,MIC,[18],3.12 µg/mL
same,MIC,[19],3.12 µg/mL
